Results as given in PubChem BioAssay AID330 (DTP/NCI, 2004).
Where “and” joins values, the source holds several entries; their conditions need not be identical. Equal entries are not always repeated. Inconclusive results and toxic doses are left out. The calls were made as follows: active = survival T/C of 150% or more; inactive = T/C below 125% in these data. Peptide text beside a SMILES is read from it.

Tested on: P388 leukemia ip, CD2F1 mice, survival T/C
Test: NCI In Vivo Anticancer Drug Screen. Data for tumor model P388 Leukemia (intraperitoneal) in CD2F1 (CDF1) mice
Settings: endpoint: median survival time, higher = longer survival
Summary of the method: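 Mice carrying the transplanted tumor received test compound or vehicle. Survival was recorded in each group, and the value is the treated-group measurement divided by that of the vehicle-treated control group.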

[1] = dose: 60.0 mg/kg/injection, schedule: Q01DX005 (ip), vehicle: saline with Tween-80
[2] = dose: 120.0 mg/kg/injection, schedule: Q01DX005 (ip), vehicle: saline with Tween-80
[3] = dose: 240.0 mg/kg/injection, schedule: Q01DX005 (ip), vehicle: saline with Tween-80
[4] = dose: 50.0 mg/kg/injection, schedule: Q01DX009 (ip), vehicle: saline with Tween-80
[5] = dose: 100.0 mg/kg/injection, schedule: Q01DX009 (ip), vehicle: saline with Tween-80
[6] = dose: 200.0 mg/kg/injection, schedule: Q01DX009 (ip), vehicle: saline with Tween-80
[7] = dose: 25.0 mg/kg/injection, schedule: Q01DX009 (ip), vehicle: saline
[8] = dose: 50.0 mg/kg/injection, schedule: Q01DX009 (ip), vehicle: saline
[9] = dose: 100.0 mg/kg/injection, schedule: Q01DX009 (ip), vehicle: saline
[10] = dose: 200.0 mg/kg/injection, schedule: Q01DX009 (ip), vehicle: saline
[11] = dose: 50.0 mg/kg/injection, schedule: Q01DX005 (ip), vehicle: Klucel (hydroxypropylcellulose) (HPC)
[12] = dose: 100.0 mg/kg/injection, schedule: Q04DX002 (ip), vehicle: saline with Tween-80
[13] = dose: 200.0 mg/kg/injection, schedule: Q04DX002 (ip), vehicle: saline with Tween-80
[14] = dose: 60.0 mg/kg/injection, schedule: Q01DX005 (ip), vehicle: saline
[15] = dose: 120.0 mg/kg/injection, schedule: Q01DX005 (ip), vehicle: saline
[16] = dose: 240.0 mg/kg/injection, schedule: Q01DX005 (ip), vehicle: saline

Measured: T/C

CC1=C(Br)S(=O)(=O)N(c2ccccc2)C(CBr)=C1Br
inactive: [1] 100 % of control | [2] 91 % of control | [3] 93 % of control

CCc1nc(NCCCCCCCCNc2nc(C)c(-c3ccccc3O)c(CC)n2)nc(C)c1-c1ccccc1O
inactive: dose: 100.0 mg/kg/injection, schedule: Q04DX003 (ip), vehicle: saline 93 % of control | dose: 200.0 mg/kg/injection, schedule: Q04DX003 (ip), vehicle: saline 94 % of control | dose: 400.0 mg/kg/injection, schedule: Q04DX003 (ip), vehicle: saline 86 % of control

O=C(CCN1CC1)Nc1ccc(NC(=O)CCN2CC2)cc1
active: dose: 10.0 mg/kg/injection, schedule: Q04DX003 (ip), vehicle: Klucel (hydroxypropylcellulose) (HPC) 198 % of control | dose: 20.0 mg/kg/injection, schedule: Q04DX003 (ip), vehicle: Klucel (hydroxypropylcellulose) (HPC) 227 % of control

Cn1ccoc1=NC1CCCCC1
inactive: [4] 110 % of control | [5] 100 % of control | [6] 100 % of control

CC(=O)Nc1cc2cc(NC(=O)C(Cl)(Cl)Cl)ccc2oc1=O
inactive: dose: 60.0 mg/kg/injection, schedule: Q01DX005 (ip), vehicle: Klucel (hydroxypropylcellulose) (HPC) 98 % of control | dose: 120.0 mg/kg/injection, schedule: Q01DX005 (ip), vehicle: Klucel (hydroxypropylcellulose) (HPC) 100 % of control | dose: 240.0 mg/kg/injection, schedule: Q01DX005 (ip), vehicle: Klucel (hydroxypropylcellulose) (HPC) 100 % of control

CCOC(=O)c1ccc(NC(=O)Oc2ccccc2C(=O)OC)cc1
inactive: [1] 100 % of control | [2] 100 % of control | [3] 95 % of control

CC1Nc2nc(N)[nH]c(=O)c2NC1C (centres undefined)
inactive: dose: 25.0 mg/kg/injection, schedule: Q01DX005 (ip), vehicle: saline 97 % of control | dose: 50.0 mg/kg/injection, schedule: Q01DX005 (ip), vehicle: saline 100 % of control and 97 % of control | dose: 100.0 mg/kg/injection, schedule: Q01DX005 (ip), vehicle: saline 101 % of control and 97 % of control | dose: 200.0 mg/kg/injection, schedule: Q01DX005 (ip), vehicle: saline 101 % of control and 95 % of control

C[n+]1ccc(C#N)c(C#N)c1
inactive: dose: 3.75 mg/kg/injection, schedule: Q01DX005 (ip), vehicle: Klucel (hydroxypropylcellulose) (HPC) 102 % of control | dose: 7.5 mg/kg/injection, schedule: Q01DX005 (ip), vehicle: Klucel (hydroxypropylcellulose) (HPC) 116 % of control | dose: 15.0 mg/kg/injection, schedule: Q01DX005 (ip), vehicle: Klucel (hydroxypropylcellulose) (HPC) 103 % of control | dose: 30.0 mg/kg/injection, schedule: Q01DX005 (ip), vehicle: Klucel (hydroxypropylcellulose) (HPC) 108 % of control and 110 % of control

CCOC(=O)Oc1ccc(CC([NH-])C(=O)O)cc1.CCOC(=O)Oc1ccc(CC([NH-])C(=O)O)cc1.[Cu+2] (centres undefined)
inactive: dose: 6.25 mg/kg/injection, schedule: Q01DX009 (ip), vehicle: saline 100 % of control | dose: 12.5 mg/kg/injection, schedule: Q01DX009 (ip), vehicle: saline 100 % of control | [7] 100 % of control

CCCCCCCCCCCCCCCC(=O)OOC(C)(C)C
inactive: [1] 93 % of control | [2] 94 % of control | [3] 93 % of control

CC(N)C(=O)NC(C(=O)O)C(C)O (centres undefined)
inactive: [7] 100 % of control | [8] 102 % of control | [9] 100 % of control | [10] 99 % of control | dose: 400.0 mg/kg/injection, schedule: Q01DX009 (ip), vehicle: saline 102 % of control

O=C(O)C1=CO[C@@H](OC2OC(CO)C(O)C(O)C2O)[C@H]2[C@@H]1C=C[C@]2(O)CO (some centres undefined)
inactive: dose: 4.68 mg/kg/injection, schedule: Q01DX009 (ip), vehicle: Klucel (hydroxypropylcellulose) (HPC) 101 % of control | dose: 9.37 mg/kg/injection, schedule: Q01DX009 (ip), vehicle: Klucel (hydroxypropylcellulose) (HPC) 97 % of control | dose: 18.75 mg/kg/injection, schedule: Q01DX009 (ip), vehicle: Klucel (hydroxypropylcellulose) (HPC) 97 % of control | dose: 37.5 mg/kg/injection, schedule: Q01DX009 (ip), vehicle: Klucel (hydroxypropylcellulose) (HPC) 94 % of control | dose: 75.0 mg/kg/injection, schedule: Q01DX009 (ip), vehicle: Klucel (hydroxypropylcellulose) (HPC) 98 % of control and 90 % of control | dose: 150.0 mg/kg/injection, schedule: Q01DX009 (ip), vehicle: Klucel (hydroxypropylcellulose) (HPC) 97 % of control

CC1(C)OC2C(CCP(=O)(O)O)OC(c3nc(C(N)=O)cs3)C2O1 (centres undefined)
inactive: dose: 100.0 mg/kg/injection, schedule: Q04DX003 (ip), vehicle: suspension in saline 99 % of control | dose: 200.0 mg/kg/injection, schedule: Q04DX003 (ip), vehicle: suspension in saline 100 % of control | dose: 400.0 mg/kg/injection, schedule: Q04DX003 (ip), vehicle: suspension in saline 119 % of control

CC1(C)CCC(C)(C)NC(=S)N1
inactive: dose: 3.13 mg/kg/injection, schedule: Q01DX009 (ip), vehicle: saline with Tween-80 96 % of control | dose: 6.25 mg/kg/injection, schedule: Q01DX009 (ip), vehicle: saline with Tween-80 105 % of control | dose: 12.5 mg/kg/injection, schedule: Q01DX009 (ip), vehicle: saline with Tween-80 96 % of control

CCCCCCCCCCCC[S][Sn]([CH2]CCC)([S]CCCCCCCCCCCC)[S]CCCCCCCCCCCC
inactive: [8] 87 % of control | [9] 99 % of control | [10] 95 % of control

CCCN1C(=O)CC(=O)N(CCC)P1(=O)OCC
inactive: dose: 100.0 mg/kg/injection, schedule: Q04DX002 (ip), vehicle: saline 101 % of control | dose: 200.0 mg/kg/injection, schedule: Q04DX002 (ip), vehicle: saline 108 % of control | dose: 400.0 mg/kg/injection, schedule: Q04DX002 (ip), vehicle: saline 101 % of control

CC(=O)c1ccc(NC(O)C(Cl)(Cl)Cl)cc1 (centres undefined)
inactive: dose: 25.0 mg/kg/injection, schedule: Q01DX009 (ip), vehicle: saline with Tween-80 99 % of control | [4] 96 % of control | [5] 103 % of control | [6] 107 % of control

CC(C)CC(NC(=O)C(NC(=O)C(N)C(C)O)C(C)C)C(=O)O (stereo not drawn) (H-Thr-Val-Leu-OH; configuration not given here)
inactive: [11] 95 % of control | dose: 100.0 mg/kg/injection, schedule: Q01DX005 (ip), vehicle: Klucel (hydroxypropylcellulose) (HPC) 101 % of control | dose: 200.0 mg/kg/injection, schedule: Q01DX005 (ip), vehicle: Klucel (hydroxypropylcellulose) (HPC) 104 % of control

Cc1ccc(S(=O)(=O)N/N=C/c2c(C)noc2C)cc1
inactive: dose: 50.0 mg/kg/injection, schedule: Q01DX009 (ip), vehicle: Klucel (hydroxypropylcellulose) (HPC) 101 % of control | dose: 100.0 mg/kg/injection, schedule: Q01DX009 (ip), vehicle: Klucel (hydroxypropylcellulose) (HPC) 95 % of control | dose: 200.0 mg/kg/injection, schedule: Q01DX009 (ip), vehicle: Klucel (hydroxypropylcellulose) (HPC) 95 % of control

O=C(CCC(=O)Nc1ccccc1[N+](=O)[O-])CC(=O)c1ccc(Br)cc1
inactive: [1] 105 % of control | [2] 106 % of control | [3] 106 % of control

Brc1ccc2[nH]c3nc(N/N=C/c4cccs4)nnc3c2c1
inactive: [12] 90 % of control | [13] 99 % of control | dose: 400.0 mg/kg/injection, schedule: Q04DX002 (ip), vehicle: saline with Tween-80 106 % of control

COc1cc([C@@H]2c3cc4c(c(OC)c3C[C@H]3COC(=O)[C@@H]32)OCO4)cc(OC)c1OC
inactive: dose: 12.5 mg/kg/injection, schedule: Q01DX005 (ip), vehicle: Klucel (hydroxypropylcellulose) (HPC) 100 % of control | dose: 25.0 mg/kg/injection, schedule: Q01DX005 (ip), vehicle: Klucel (hydroxypropylcellulose) (HPC) 103 % of control | [11] 103 % of control and 111 % of control

O=C(COc1ccc(Cl)cc1Cl)Nc1ccccc1F
inactive: dose: 100.0 mg/kg/injection, schedule: Q04DX003 (ip), vehicle: saline with Tween-80 100 % of control | dose: 200.0 mg/kg/injection, schedule: Q04DX003 (ip), vehicle: saline with Tween-80 100 % of control | dose: 400.0 mg/kg/injection, schedule: Q04DX003 (ip), vehicle: saline with Tween-80 100 % of control

CN(C)c1ccccc1[Si](C)(C)N(C)C
inactive: [14] 103 % of control | [15] 103 % of control | [16] 106 % of control

O=C(Cc1cc(-c2ccccc2)nc(=O)[nH]1)c1ccccc1
inactive: [12] 97 % of control | [13] 93 % of control

CCOP(=O)(CC=O)OCC
inactive: [14] 95 % of control | [15] 100 % of control | [16] 101 % of control
